Laboratory results from ChEMBL document CHEMBL4627395, “Cytotoxic Heptaketides from the Endolichenic Fungus Ulospora bilgramii” (J Nat Prod, 2020).
Structures can show the parent of a compound that is named as a salt. Calls of active or inactive are those of the source. No cut-off for these calls is given here.

How the values were obtained:
A549 [1] = experiment: Cytotoxicity against human A549 cells incubated for 48 hrs by MTT assay; assay type: functional, cell-based; conditions: A549, 48 h
MCF7 = experiment: Cytotoxicity against human MCF7 cells incubated for 48 hrs by MTT assay; assay type: functional, cell-based; conditions: MCF7, 48 h
KB = experiment: Cytotoxicity against human KB cells incubated for 48 hrs by MTT assay; assay type: functional, cell-based
A549 [2] = experiment: Induction of cell cycle arrest in human A549 cells assessed as accumulation at G0/G1 phase incubated for 24 hrs by flow cytometry; assay type: functional, cell-based
A549 [3] = experiment: Induction of cell cycle arrest in human A549 cells assessed as accumulation at G0/G1 phase at 13.6 uM incubated for 24 hrs by flow cytometry (reference value: 55.79%); assay type: functional
A549 [4] = experiment: Induction of cell cycle arrest in human A549 cells assessed as accumulation at S phase at 13.6 uM incubated for 24 hrs by flow cytometry (reference value: 33.65%); assay type: functional
A549 [5] = experiment: Induction of cell cycle arrest in human A549 cells assessed as accumulation at G2/M phase at 13.6 uM incubated for 24 hrs by flow cytometry (reference value: 10.38%); assay type: functional
A549 [6] = experiment: Induction of cell cycle arrest in human A549 cells assessed as accumulation at G0/G1 phase at 1.25 uM incubated for 24 hrs by flow cytometry (reference value: 55.79%); assay type: functional
A549 [7] = experiment: Induction of cell cycle arrest in human A549 cells assessed as accumulation at S phase at 1.25 uM incubated for 24 hrs by flow cytometry (reference value: 33.65%); assay type: functional
A549 [8] = experiment: Induction of cell cycle arrest in human A549 cells assessed as accumulation at G2/M phase at 1.25 uM incubated for 24 hrs by flow cytometry (reference value: 10.38%); assay type: functional
A549 [9] = experiment: Induction of cell cycle arrest in human A549 cells assessed as accumulation at G0/G1 phase at 2.5 uM incubated for 24 hrs by flow cytometry (reference value: 55.79%); assay type: functional
A549 [10] = experiment: Induction of cell cycle arrest in human A549 cells assessed as accumulation at S phase at 2.5 uM incubated for 24 hrs by flow cytometry (reference value: 33.65%); assay type: functional
A549 [11] = experiment: Induction of cell cycle arrest in human A549 cells assessed as accumulation at G2/M phase at 2.5 uM incubated for 24 hrs by flow cytometry (reference value: 10.38%); assay type: functional
A549 [12] = experiment: Induction of cell cycle arrest in human A549 cells assessed as accumulation at G0/G1 phase at 5 uM incubated for 24 hrs by flow cytometry (reference value: 55.79%); assay type: functional
A549 [13] = experiment: Induction of cell cycle arrest in human A549 cells assessed as accumulation at S phase at 5 uM incubated for 24 hrs by flow cytometry (reference value: 33.65%); assay type: functional
A549 [14] = experiment: Induction of cell cycle arrest in human A549 cells assessed as accumulation at G2/M phase at 5 uM incubated for 24 hrs by flow cytometry (reference value: 10.38%); assay type: functional
A549 [15] = experiment: induction of morphological changes in human A549 cells assessed as cell shrinkage at 1.25 to 5 uM incubated for 24 hrs by DAPI-staining based microscopic method; assay type: functional
A549 [16] = experiment: induction of morphological changes in human A549 cells assessed as appearance of apoptotic bodies at 1.25 to 5 uM incubated for 24 hrs by DAPI-staining based microscopic method; assay type: functional, cell-based
A549 [17] = experiment: Induction of apoptosis in human A549 cells after 24 hrs by Annexin-V-FITC/propidium iodide staining based flow cytometric method; assay type: functional, cell-based
A549 [18] = experiment: Induction of apoptosis in human A549 cells assessed as early apoptotic cells at 13.6 uM after 24 hrs by Annexin-V-FITC/propidium iodide staining based flow cytometric method (reference value: 0.56%); assay type: functional
A549 [19] = experiment: Induction of apoptosis in human A549 cells assessed as late apoptotic cells at 13.6 uM after 24 hrs by Annexin-V-FITC/propidium iodide staining based flow cytometric method (reference value: 1.40%); assay type: functional
A549 [20] = experiment: Induction of apoptosis in human A549 cells assessed as necrotic cells at 13.6 uM after 24 hrs by Annexin-V-FITC/propidium iodide staining based flow cytometric method (reference value: 1.12%); assay type: functional
A549 [21] = experiment: Induction of apoptosis in human A549 cells assessed as early apoptotic cells at 1.25 uM after 24 hrs by Annexin-V-FITC/propidium iodide staining based flow cytometric method (reference value: 0.56%); assay type: functional
A549 [22] = experiment: Induction of apoptosis in human A549 cells assessed as late apoptotic cells at 1.25 uM after 24 hrs by Annexin-V-FITC/propidium iodide staining based flow cytometric method (reference value: 1.40%); assay type: functional
A549 [23] = experiment: Induction of apoptosis in human A549 cells assessed as necrotic cells at 1.25 uM after 24 hrs by Annexin-V-FITC/propidium iodide staining based flow cytometric method (reference value: 1.12%); assay type: functional
A549 [24] = experiment: Induction of apoptosis in human A549 cells assessed as early apoptotic cells at 2.5 uM after 24 hrs by Annexin-V-FITC/propidium iodide staining based flow cytometric method (reference value: 0.56%); assay type: functional
A549 [25] = experiment: Induction of apoptosis in human A549 cells assessed as late apoptotic cells at 2.5 uM after 24 hrs by Annexin-V-FITC/propidium iodide staining based flow cytometric method (reference value: 1.40%); assay type: functional
A549 [26] = experiment: Induction of apoptosis in human A549 cells assessed as necrotic cells at 2.5 uM after 24 hrs by Annexin-V-FITC/propidium iodide staining based flow cytometric method (reference value: 1.12%); assay type: functional
A549 [27] = experiment: Induction of apoptosis in human A549 cells assessed as early apoptotic cells at 5 uM after 24 hrs by Annexin-V-FITC/propidium iodide staining based flow cytometric method (reference value: 0.56%); assay type: functional
A549 [28] = experiment: Induction of apoptosis in human A549 cells assessed as late apoptotic cells at 5 uM after 24 hrs by Annexin-V-FITC/propidium iodide staining based flow cytometric method (reference value: 1.40%); assay type: functional
A549 [29] = experiment: Induction of apoptosis in human A549 cells assessed as necrotic cells at 5 uM after 24 hrs by Annexin-V-FITC/propidium iodide staining based flow cytometric method (reference value: 1.12%); assay type: functional
A549 [30] = experiment: Induction of ROS generation in human A549 cells incubated for 24 hrs by DCFH-DA staining-based flow cytometric analysis relative to control; assay type: functional, cell-based
A549 [31] = experiment: Induction of ROS generation in human A549 cells assessed as increase in fluorescence intensity at 5 uM incubated for 24 hrs by DCFH-DA staining-based flow cytometric analysis relative to control; assay type: functional
[32] = target: DNA topoisomerase 2-alpha (Homo sapiens) (UniProt P11388); experiment: Inhibition of human topoisomerase-2alpha expressed in baculovirus infected insect cells assessed as reduction in pBR322 DNA relaxation measured after 30 mins by ethidium bromide staining based agarose gel electrophoresis method relative to control
Sequence of DNA topoisomerase 2-alpha (Homo sapiens) (P11388 whole entry): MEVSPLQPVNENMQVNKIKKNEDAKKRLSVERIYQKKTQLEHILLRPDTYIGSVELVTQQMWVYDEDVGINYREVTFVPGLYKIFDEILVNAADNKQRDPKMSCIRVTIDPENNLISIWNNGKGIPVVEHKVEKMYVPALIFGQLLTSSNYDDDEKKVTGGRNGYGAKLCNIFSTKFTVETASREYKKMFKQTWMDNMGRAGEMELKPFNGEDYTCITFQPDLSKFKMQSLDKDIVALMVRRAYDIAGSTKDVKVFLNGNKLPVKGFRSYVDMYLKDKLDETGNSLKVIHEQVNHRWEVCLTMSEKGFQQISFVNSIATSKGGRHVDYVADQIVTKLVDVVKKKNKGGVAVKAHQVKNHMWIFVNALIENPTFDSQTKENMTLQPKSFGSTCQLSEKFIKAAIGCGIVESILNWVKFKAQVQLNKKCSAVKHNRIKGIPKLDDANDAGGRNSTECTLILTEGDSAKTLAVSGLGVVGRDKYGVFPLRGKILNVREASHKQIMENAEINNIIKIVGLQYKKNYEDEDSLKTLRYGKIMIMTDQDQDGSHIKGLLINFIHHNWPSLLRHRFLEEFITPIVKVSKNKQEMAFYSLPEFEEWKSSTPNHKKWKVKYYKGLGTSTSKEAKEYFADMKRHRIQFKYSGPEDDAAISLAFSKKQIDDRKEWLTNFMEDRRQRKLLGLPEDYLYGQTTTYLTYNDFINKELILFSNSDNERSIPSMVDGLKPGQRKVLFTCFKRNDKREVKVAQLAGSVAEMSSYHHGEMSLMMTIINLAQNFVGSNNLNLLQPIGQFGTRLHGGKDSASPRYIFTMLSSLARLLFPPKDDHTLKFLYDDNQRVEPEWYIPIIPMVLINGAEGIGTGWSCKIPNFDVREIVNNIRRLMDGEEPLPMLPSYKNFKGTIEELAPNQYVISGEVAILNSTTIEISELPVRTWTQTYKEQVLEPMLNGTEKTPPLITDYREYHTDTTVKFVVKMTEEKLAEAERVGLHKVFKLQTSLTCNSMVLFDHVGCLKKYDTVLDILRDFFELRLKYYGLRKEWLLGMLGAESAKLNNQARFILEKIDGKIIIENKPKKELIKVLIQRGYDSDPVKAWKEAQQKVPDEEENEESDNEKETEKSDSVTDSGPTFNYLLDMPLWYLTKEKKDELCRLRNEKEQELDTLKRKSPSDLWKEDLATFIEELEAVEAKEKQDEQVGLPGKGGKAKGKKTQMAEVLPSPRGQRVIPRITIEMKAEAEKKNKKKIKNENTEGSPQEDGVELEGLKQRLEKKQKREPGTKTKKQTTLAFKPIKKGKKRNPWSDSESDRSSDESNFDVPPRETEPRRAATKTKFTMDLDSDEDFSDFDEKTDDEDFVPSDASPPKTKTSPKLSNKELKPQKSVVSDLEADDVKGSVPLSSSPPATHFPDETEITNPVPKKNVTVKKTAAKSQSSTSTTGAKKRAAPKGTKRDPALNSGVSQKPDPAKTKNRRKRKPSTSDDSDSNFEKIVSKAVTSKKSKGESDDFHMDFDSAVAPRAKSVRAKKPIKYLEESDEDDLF

A549 [33] = experiment: Induction of DNA damage in human A549 cells assessed as gammaH2AX accumulation incubated for 24 hrs by DAPI staining based Immunofluorescence method; assay type: functional, cell-based

## COc1cc(O)c2c(c1)[C@H](O)[C@H](C)CC2=O
A549 [1]
  IC50: > 40 µM
MCF7
  IC50: > 40 µM
KB
  IC50: > 40 µM

## COc1cc(O)c2c(c1)[C@@H](O)[C@@H]1C[C@H](C)OC[C@H]1C2=O
A549 [1]
  IC50: > 40 µM
MCF7
  IC50: > 40 µM
KB
  IC50: > 40 µM

## COc1cc(O)c2c(c1)C(=O)C1=C(COC(C)(O)C1)C2=O (configuration not stated)
A549 [1]
  IC50: > 40 µM
MCF7
  IC50: > 40 µM
KB
  IC50: > 40 µM

## COc1cc(O)c2c(c1)C(=O)C1=C(C2=O)[C@H](OC[C@@H]2C(=O)CC[C@H]2C)OC(C)=C1
A549 [1]
  IC50: 1.3 µM
MCF7
  IC50: 1.3 µM
KB
  IC50: 3 µM
A549 [2]
  Activity: Dose-dependent effect
A549 [3]
  Activity: 30.93%
A549 [4]
  Activity: 24.26%
A549 [5]
  Activity: 44.81%
A549 [6]
  Activity: 59.51%
A549 [7]
  Activity: 33.31%
A549 [8]
  Activity: 7.18%
A549 [9]
  Activity: 66.37%
A549 [10]
  Activity: 30.07%
A549 [11]
  Activity: 3.56%
A549 [12]
  Activity: 69.15%
A549 [13]
  Activity: 29.74%
A549 [14]
  Activity: 1.11%
A549 [15]
  Activity: Active
A549 [16]
  Activity: Active
A549 [17]
  Activity: Dose-dependent effect
A549 [18]
  Activity: 6.79%
A549 [19]
  Activity: 5.02%
A549 [20]
  Activity: 2.15%
A549 [21]
  Activity: 0.98%
A549 [22]
  Activity: 1.14%
A549 [23]
  Activity: 0.73%
A549 [24]
  Activity: 0.87%
A549 [25]
  Activity: 2.69%
A549 [26]
  Activity: 1.3%
A549 [27]
  Activity: 1.8%
A549 [28]
  Activity: 10.75%
A549 [29]
  Activity: 7.75%
A549 [30]
  Activity: Dose-dependent effect
A549 [31]
  fold change (FC): 5
[32]
  inhibition: Active
A549 [33]
  Activity: Dose-dependent effect

## COc1cc(O)c2c(c1)C(=O)C1=C(C2=O)C(OC)OC(C)=C1 (configuration not stated) [ASCOMYCONE A]
A549 [1]
  IC50: > 40 µM
MCF7
  IC50: > 40 µM
KB
  IC50: > 40 µM

## COc1cc(O)c2c(c1)C(=O)C1=C(C2=O)C(O)OC(C)=C1 (configuration not stated) [ASCOMYCONE B]
A549 [1]
  IC50: > 40 µM
MCF7
  IC50: > 40 µM
KB
  IC50: > 40 µM

## COc1cc(O)c2c(c1)[C@@H]1O[C@]3(C)C[C@@H]1[C@@H](CO3)C2=O
A549 [1]
  IC50: > 40 µM
MCF7
  IC50: > 40 µM
KB
  IC50: > 40 µM

## COc1cc(O)c2c(c1)C(=O)C1=C(COC(C)=C1)C2=O
A549 [1]
  IC50: > 40 µM
MCF7
  IC50: > 40 µM
KB
  IC50: > 40 µM

## COc1cc(C)cc(O)c1
A549 [1]
  IC50: > 40 µM
MCF7
  IC50: > 40 µM
KB
  IC50: > 40 µM

## COc1cc(O)c2c(c1)C(=O)C1=C(C2=O)[C@](C)(OC)OCC1
A549 [1]
  IC50: 28.2 µM
MCF7
  IC50: 11.6 µM
KB
  IC50: 16.6 µM

## COc1cc(O)c2c(c1)[C@@H](O)[C@H]1C[C@H](C)OC=C1C2=O
A549 [1]
  IC50: > 40 µM
MCF7
  IC50: > 40 µM
KB
  IC50: > 40 µM

## COc1cc(O)c2c(c1)[C@@H](O)[C@@H]1C[C@@H](C)OC[C@H]1C2=O
A549 [1]
  IC50: > 40 µM
MCF7
  IC50: > 40 µM
KB
  IC50: > 40 µM

## COc1cc(O)c2c(c1)C(=O)C(CC(C)=O)=C(C)C2=O
A549 [1]
  IC50: > 40 µM
MCF7
  IC50: > 40 µM
KB
  IC50: > 40 µM

## COc1cc(O)c2c(c1)C(=O)c1cc(C)ncc1C2=O
A549 [1]
  IC50: > 40 µM
MCF7
  IC50: > 40 µM
KB
  IC50: > 40 µM

## COc1cc(O)c2c(c1)C(=O)C1=C(C2=O)[C@@](C)(OC)OCC1
A549 [1]
  IC50: 28.2 µM
MCF7
  IC50: 11.6 µM
KB
  IC50: 16.6 µM

## COC1=CC(=O)[C@H](O)[C@H](C)C12Oc1cccc3cccc(c13)O2
A549 [1]
  IC50: > 40 µM
MCF7
  IC50: > 40 µM
KB
  IC50: > 40 µM

## COc1cc(O)c2c(c1)[C@H](O)[C@@H]1C[C@H](C)OC[C@H]1C2=O
A549 [1]
  IC50: > 40 µM
MCF7
  IC50: > 40 µM
KB
  IC50: > 40 µM

## COc1cccc2c1C(=O)c1c(O)c3c(c(O)c1C2=O)C[C@@](O)(C(=O)CO)C[C@@H]3O[C@H]1C[C@H](N)[C@H](O)[C@H](C)O1 [DOXORUBICIN HYDROCHLORIDE]
A549 [1]
  IC50: 5 µM
MCF7
  IC50: 2.5 µM
KB
  IC50: 2.2 µM

## COc1cc(C)c(Cc2c(C)cc(O)cc2OC)c(O)c1
A549 [1]
  IC50: > 40 µM
MCF7
  IC50: > 40 µM
KB
  IC50: > 40 µM

## COc1cc(O)c2c(c1)C(=O)c1c(coc1[C@H](C)O)C2=O
A549 [1]
  IC50: > 40 µM
MCF7
  IC50: > 40 µM
KB
  IC50: > 40 µM
